Experimental findings from patent US9333240B2, “Compounds for improving nutritional status, cognition and survival” (YISSUM RESEARCH DEVELOPMENT COMPANY OF THE HEBREW …, priority 2005, dated 2016) are described below.

One assay concerns mice. The assay can be described thus: Eight-arm maze, mice ad libitum or diet restricted. It is filed as in vivo. How it is done:
Control mice received food ad-libitum. Diet-restricted mice received a diet of 57 kCal/week/mouse (2.16 g/day/mouse) as 60% of the requirement, or 38 kCal/week/mouse (1.44 g/day/mouse) for 40%/DR. DR was carried out for 10 days. Behavioral test was performed using the eight-arm spatial maze during the second week of experiment. […] Mice were sacrificed by decapitation after the behavioral tests and the hippocampi were frozen at −70° C. The animals were placed in an eight-arm maze, which is a scaled-down version of that developed for rats (Randt et al, (1971) Science 172, 489-499; Ziv et al (1994) Neuroscience Lett, 170, 136-140). […] The mice were tested until they made entries into all eight arms or until they completed 24 entries, whichever came first. […] Maze performance was calculated each day for five consecutive days. Results were presented as area under the curve (AUC) utilizing the formula: (day 2+day 3+day 4+day 5)−4*(day 1).

The next assay concerns PC-12 cells. The assay is described as follows: Annexin V FACS analysis of apoptosis in PC-12 cells. Type of assay: cell-based. The conditions noted are these: AICAR, 48 h. How it is done: Cells were grown in 60-mm plates and treated with AICAR for 48 h. Apoptosis was evaluated using the Annexin V FITC Detection Kit (Oncogene Research Products, Cambridge Mass.). Briefly, both attached and floating cells were collected, washed with cold PBS, re-suspended at a density of 5×10^5/ml in 0.5 ml DMEM, stained for annexin V and analyzed by flow cytometry. The apoptotic ratio at 48 h, was also evaluated, by FACS analysis.
On the technique in general: In flow cytometry, cells or beads pass a laser one at a time.

Assay [1] deals with BrdU-immunoreactive cells in the dentate gyrus. The assay is described as follows: BrdU labelling of newly generated cells in the dentate gyrus of mice. Type of assay: in vivo. The note with it: 25 nM AICAR once daily for 10 days vs saline. How it is done: In order to determine what is “low level activation” varying doses of the AMPK pathway activator may be administered to test animals in the final formulation intended to be used in humans, together with Brd-U. Animals are than sacrificed and the number of BrdU-immunoreactive cells in the dentate gyrus is determined in order to measure the generation rate of new cells. Amounts that are capable of increasing the number of newly generated cells are considers as “therapeutically effective amounts” when converted, according to known criteria, to physiologically corresponding amounts in humans.
The function of AMPK activation in the hippocampus was evaluated. […] Mice were treated with bromodeoxyuridine (BrdU) and either saline or 25 nM AICAR (low level stimulation) once daily for 10 days. […] Next, behavioral testing was performed using the eight-arm maze to determine whether there was a concomitant improvement in cognition. […] (FIG. 1C).

Assay [2] concerns differentiated PC-12 cells. The assay can be described thus: Viable cell number of differentiated PC-12 cells. It is filed as cell-based. The note with it: AICAR 0.125 to 1.0 mM, 96 h. As to the method: PC-12 cells were kindly provided by O. Meyuhas, Dept. of Biochem., Faculty of Medicine, Jerusalem. These cells were grown either in Dulbecco's modified Eagle's medium (DMEM) supplemented with 8% horse serum, 8% fetal bovine serum (FBS), glutamine, and gentamicin or with 1% horse serum, in the presence of nerve growth factor (NGF) (50 ng/ml), which causes the cells to differentiate. Murine leptin was provided by A. Gertler. AICAR was obtained from Toronto Research Chemicals (TRC). To confirm the cellular effects of AMPK in the hippocampus, in-vitro studies on PC-12 cells were also preformed.

The subject of another assay is Bcl-2, Bax, PARP. The assay can be described thus: Hippocampal apoptosis proteins by RT-PCR and immunoblotting. Type of assay: in vivo, mice. The conditions noted are these: AICAR treatment (1-2 mM), RT-PCR and immunoblotting. How it is done:
Total hippocampal RNA was extracted using […] reagent according to the manufacturer's instructions and reverse transcribed. Primers specific for OBRlong were […] NO: 1) and […] NO: 6), for […] NO: 2), and […] NO: 7), for BAX […] NO: 3) and […] NO: 8) for Bcl-2 […] NO: 4) and […] NO: 9) and for actin […] NO: 5) and […] NO: 10). […] Total hippocampal Protein was extracted using […] reagent. Aliquots of the clarified lysates containing […] were denatured in Laemmli sample buffer (6% SDS 30%, glycerol, 0.02% bromophenol blue, 200 mM Tris-HCl (pH 6.8), and 250 mM-mercaptoethanol, at 95° C. for 5 min. The samples were resolved by SDS-PAGE (10% acrylamide), and blotted onto nitrocellulose membrane. Non-specific binding in a Western blot analysis was prevented by immersing the membranes in blocking buffer (5% nonfat dry milk in Tris-buffer saline-Tween 20 (TBS-T)), for 2 h at room temperature. The membranes were then exposed to the indicated antibodies diluted 1:1000 for 1 h at room temperature. AMPK, phospho-AMPK and PARP were obtained from Cell Signaling. Bax, bcl-2 and actin were from Santa Cruz Biotechnology Inc. (Santa Cruz, Calif.). The blots were rinsed in TBS-T and then incubated with horseradish peroxidase-conjugated goat anti-mouse antibodies 1:10,000 for 1 h at room temperature. Antibody-antigen complexes were visualized by detecting enhanced chemiluminescence with X-ray film.

Assay [3] has as its system norepinephrine and dopamine in the hippocampus. The assay is described as follows: Hippocampal catecholamine measurements (HPLC-ECD). It is filed as in vivo, mice. The conditions noted are these: AICAR 1-2 mM daily for 10 days. As to the method: Control mice received food ad-libitum. Diet-restricted mice received a diet of 57 kCal/week/mouse (2.16 g/day/mouse) as 60% of the requirement, or 38 kCal/week/mouse (1.44 g/day/mouse) for 40%/DR. DR was carried out for 10 days. Behavioral test was performed using the eight-arm spatial maze during the second week of experiment. During the behavioral tests, half of the animals in each group were injected intraperitoneally (i.p) with AICAR (1-2 mM equal to 258-516 mg/kg) or leptin (1 mg/kg) and the other half with saline. Mice were sacrificed by decapitation after the behavioral tests and the hippocampi were frozen at -70° C. Catecholamines were measured as described previously ([…] et al (1996), Brain Res. 732, 133-144. The assays for dopamine and NE were performed by HPLC separation and detection using HPLC-ECD. Values are presented as a concentration (ng/mg tissue).

On to `NC(=O)c1ncn([C@@H]2O[C@H](CO)[C@@H](O)[C@H]2O)c1N` [AICAR, 5-aminoimidazole-4-carboxamide ribonucleoside, reference compound], for which, in the assay with mice (25 nM AICAR (low level stimulation) vs controls), the eight-arm maze performance entry is given as “performed significantly better than the controls”. The eight-arm maze performance entry in the assay on mice (high dose AICAR (1-2 mM) vs ad libitum group, similar to DR to 40%) is listed as “significant deterioration in maze performance”. Besides, the “apoptotic cell death (Annexin V staining)” value with PC-12 cells is given as “induces apoptotic cell death in a dose-dependent manner”. Further, the “number of BrdU-immunoreactive cells in the dentate gyrus (generation rate of new cells)” value in assay [1] is reported as “significantly increased”. Besides, in assay [2], the “number of viable cells” value is reported as “dose-dependent reduction in the number of viable cells, reaching almost total after 96 h”. Moreover, in the assay on Bcl-2, Bax, PARP, the Bax level entry is given as “up-regulation” and the bcl-2 level result is recorded as “reducing”. For the same compound, the dopamine concentrations result in assay [3] (p<0.05) was “elevating”. The “norepinephrine (NE) concentrations” value in assay [3] (p<0.05, 0.01 for the two dosages) is listed as “decreased”.
